Measured values as given in ChEMBL document CHEMBL1158513, “Identification and SAR of novel pyrrolo[1,2-a]pyrazin-1(2H)-one derivatives as inhibitors of poly(ADP-ribose) polymerase-1 (PARP-1)” (Bioorg Med Chem Lett, 2010).
Several values for one entry are separate records, joined by “and”; a condition that tells them apart may be missing. Identical values can stand only once.

Tests used:
[1] = target: Poly [ADP-ribose] polymerase 1 (Homo sapiens, UniProt P09874); assay: Inhibition of PARP1 by topcount microplate scintillation counter
Chain of Poly [ADP-ribose] polymerase 1 (P09874 whole entry): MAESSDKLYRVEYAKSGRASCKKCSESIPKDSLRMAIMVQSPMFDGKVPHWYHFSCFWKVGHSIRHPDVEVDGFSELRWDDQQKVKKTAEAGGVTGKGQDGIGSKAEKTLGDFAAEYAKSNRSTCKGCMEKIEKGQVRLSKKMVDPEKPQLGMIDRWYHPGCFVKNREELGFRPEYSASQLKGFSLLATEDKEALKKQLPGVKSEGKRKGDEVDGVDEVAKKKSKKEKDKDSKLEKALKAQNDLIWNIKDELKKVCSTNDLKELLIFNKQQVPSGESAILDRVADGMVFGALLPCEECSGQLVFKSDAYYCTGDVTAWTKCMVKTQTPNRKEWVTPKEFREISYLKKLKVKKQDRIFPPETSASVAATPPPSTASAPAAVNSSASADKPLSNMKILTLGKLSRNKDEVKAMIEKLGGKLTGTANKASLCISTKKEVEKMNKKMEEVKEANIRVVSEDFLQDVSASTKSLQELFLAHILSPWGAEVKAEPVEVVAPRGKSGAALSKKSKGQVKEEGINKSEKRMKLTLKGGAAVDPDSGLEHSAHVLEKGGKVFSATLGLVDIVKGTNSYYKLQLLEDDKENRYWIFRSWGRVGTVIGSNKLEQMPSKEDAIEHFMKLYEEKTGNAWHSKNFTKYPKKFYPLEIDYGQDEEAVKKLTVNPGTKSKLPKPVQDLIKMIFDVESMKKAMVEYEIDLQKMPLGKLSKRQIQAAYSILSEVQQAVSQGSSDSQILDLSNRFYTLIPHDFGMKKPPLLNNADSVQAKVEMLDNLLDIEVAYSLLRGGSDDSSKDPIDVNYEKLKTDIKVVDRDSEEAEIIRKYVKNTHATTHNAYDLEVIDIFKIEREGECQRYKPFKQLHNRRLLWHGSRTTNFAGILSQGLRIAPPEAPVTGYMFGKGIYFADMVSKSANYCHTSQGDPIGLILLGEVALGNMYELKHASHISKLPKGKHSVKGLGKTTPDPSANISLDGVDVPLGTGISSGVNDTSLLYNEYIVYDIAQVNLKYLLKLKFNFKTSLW

HeLa [2] = assay: Antiproliferative activity against BRCA1-deficient human HeLa cells after 7 days by celltiter-blue assay; assay type: functional; conditions: 168 h
HeLa [3] = assay: Antiproliferative activity against BRCA1-proficient human HeLa cells after 7 days by celltiter-blue assay; assay type: functional; conditions: 168 h
HeLa [4] = assay: Selectivity ratio of CC50 for BRCA1-proficient human HeLa to CC50 for BRCA1-deficient human HeLa cells; assay type: functional
[5] = Lipophilicity, log D of the compound; assay type: physicochemical; conditions: octanol/water
[6] = Intrinsic clearance in rat liver microsomes; assay type: ADME, Microsome
[7] = Clearance in rat; assay type: ADME, organism-based; conditions: in vivo
CYP3A4 = CYP3A4 (Homo sapiens, UniProt P08684); assay: Inhibition of CYP3A4 at 10 uM; assay type: ADME
Chain of CYP3A4 (P08684 whole entry): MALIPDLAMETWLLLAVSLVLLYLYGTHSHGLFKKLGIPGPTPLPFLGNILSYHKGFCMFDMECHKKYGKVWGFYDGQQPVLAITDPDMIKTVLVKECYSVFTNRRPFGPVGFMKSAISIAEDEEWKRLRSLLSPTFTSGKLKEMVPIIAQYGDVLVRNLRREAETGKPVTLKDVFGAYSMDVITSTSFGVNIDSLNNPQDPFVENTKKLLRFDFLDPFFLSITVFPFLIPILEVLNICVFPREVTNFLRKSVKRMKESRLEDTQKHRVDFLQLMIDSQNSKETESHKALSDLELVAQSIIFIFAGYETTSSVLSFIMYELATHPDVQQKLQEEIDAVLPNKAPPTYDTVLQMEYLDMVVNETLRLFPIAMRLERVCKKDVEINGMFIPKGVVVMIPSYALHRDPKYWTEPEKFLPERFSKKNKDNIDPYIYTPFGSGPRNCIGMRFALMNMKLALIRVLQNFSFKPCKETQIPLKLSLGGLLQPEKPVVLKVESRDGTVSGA

Compound	IC50 [1] [nM]	CC50 (HeLa [2]) [nM]	CC50 (HeLa [3]) [nM]	Selectivity ratio (HeLa [4])	logD [5]	microsomal CLint [6] [µL/min/mg]	clearance [7] [mL/min/kg]	inhibition at 10 µM (CYP3A4) [%]
O=C(c1cc(Cc2c[nH]c(=O)c3cc(Cl)c(Cl)n23)ccc1F)N1CCN(c2ncnc3ccccc23)CC1	1.4	60	920	–	–	–	–	–
O=C(c1cc(Cc2c[nH]c(=O)c3cc(Cl)c(Cl)n23)ccc1F)N1CCC2(CCCN2)CC1	–	48	> 10000	50	–	–	–	–
O=C(c1cc(Cc2c[nH]c(=O)c3cc(Cl)c(Cl)n23)ccc1F)N1CCNCC1	2.3	180	> 20000	–	–	–	–	–
O=C(c1cc(Cc2c[nH]c(=O)c3cc(Cl)c(Cl)n23)ccc1F)N1CCN(c2ncc3ccccc3n2)CC1	1	190	770	–	–	–	–	–
O=C(c1cc(Cc2c[nH]c(=O)c3cc(Cl)c(Cl)n23)ccc1F)N1CCC2(CCN2)CC1	8.2	2300	> 5000	–	–	–	–	–
COc1cccnc1N1CCN(C(=O)c2cc(Cc3c[nH]c(=O)c4cc(Cl)c(Cl)n34)ccc2F)CC1	15	2700	> 5000	–	–	–	–	–
O=C(c1cc(Cc2c[nH]c(=O)c3cc(Cl)c(Cl)n23)ccc1F)N1CCN(C(=O)C2CCCC2)CC1	3.7	270	> 5000	–	–	–	–	–
CCCCN1CCN(C(=O)c2cc(Cc3c[nH]c(=O)c4cc(Cl)c(Cl)n34)ccc2F)CC1	13	1600	> 10000	–	–	–	–	–
O=C(c1cc(Cc2c[nH]c(=O)c3cc(Cl)c(Cl)n23)ccc1F)N1CCOCC1	59	–	–	–	–	–	–	–
CN(C)S(=O)(=O)N1CCN(C(=O)c2cc(Cc3c[nH]c(=O)c4cc(Cl)c(Cl)n34)ccc2F)CC1	2.4	910	> 10000	–	–	–	–	–
N#Cc1cccnc1N1CCN(C(=O)c2cc(Cc3c[nH]c(=O)c4cc(Cl)c(Cl)n34)ccc2F)CC1	0.7	62	1600	25	–	–	–	–
O=C(c1cc(Cc2c[nH]c(=O)c3cc(Cl)c(Cl)n23)ccc1F)N1CCN(C2CCCCC2)CC1	14	970	> 5000	–	–	–	–	–
O=C(c1cc(Cc2c[nH]c(=O)c3c(Cl)cc(Cl)n23)ccc1F)N1CCCNCC1	4	18000	> 20000	–	–	–	–	–
O=C(c1cc(Cc2c[nH]c(=O)c3cc(Cl)cn23)ccc1F)N1CCCNCC1	1	2500	> 20000	–	0.58	–	–	–
N#Cc1ccc(N2CCN(C(=O)c3cc(Cc4c[nH]c(=O)c5cc(Cl)c(Cl)n45)ccc3F)CC2)nc1	14	200	4200	–	–	–	–	–
O=C(c1cc(Cc2c[nH]c(=O)c3cc(Cl)c(Cl)n23)ccc1F)N1CCN(c2ccccc2F)CC1	24	> 10000	> 10000	–	–	–	–	–
NC1CCN(C(=O)c2cc(Cc3c[nH]c(=O)c4cc(Cl)c(Cl)n34)ccc2F)CC1	7.1	3800	> 10000	–	–	–	–	–
CCN(CC)C1CCN(C(=O)c2cc(Cc3c[nH]c(=O)c4cc(Cl)c(Cl)n34)ccc2F)CC1	22	1100	> 5000	–	–	–	–	–
O=C(c1ncc[nH]1)N1CCN(C(=O)c2cc(Cc3c[nH]c(=O)c4cc(Cl)c(Cl)n34)ccc2F)CC1	3.1	500	> 5000	–	–	–	–	–
CN(C)CC(=O)N1CCN(C(=O)c2cc(Cc3c[nH]c(=O)c4cc(Cl)c(Cl)n34)ccc2F)CC1	2.5	3500	> 10000	–	–	–	–	–
O=C(c1cc(Cc2c[nH]c(=O)c3cccn23)ccc1F)N1CCCNCC1	1.8	> 20000	> 20000	–	-0.89	–	–	–
CC(C)CN1CCN(C(=O)c2cc(Cc3c[nH]c(=O)c4cc(Cl)c(Cl)n34)ccc2F)CC1	14	250	> 10000	–	–	–	–	–
CC(C)C(=O)N1CCN(C(=O)c2cc(Cc3c[nH]c(=O)c4cc(Cl)c(Cl)n34)ccc2F)CC1	2.1	150	> 5000	30	–	–	–	–
CC(=O)N1CCCN(C(=O)c2cc(Cc3c[nH]c(=O)c4cc(Cl)c(Cl)n34)ccc2F)CC1	19	5700	> 20000	–	–	–	–	–
CN(C)C(=O)N1CCN(C(=O)c2cc(Cc3c[nH]c(=O)c4cc(Cl)c(Cl)n34)ccc2F)CC1	7.2	670	> 10000	–	–	–	–	–
CC(C)(C)C(=O)N1CCN(C(=O)c2cc(Cc3c[nH]c(=O)c4cc(Cl)c(Cl)n34)ccc2F)CC1	1	340	> 5000	–	–	–	–	–

Compound	IC50 [1] [nM]	CC50 (HeLa [2]) [nM]	CC50 (HeLa [3]) [nM]	Selectivity ratio (HeLa [4])	logD [5]	microsomal CLint [6] [µL/min/mg]	clearance [7] [mL/min/kg]	inhibition at 10 µM (CYP3A4) [%]
CN1CCCN(C(=O)c2cc(Cc3c[nH]c(=O)c4cc(Cl)c(Cl)n34)ccc2F)CC1	5	1100	> 20000	–	–	–	–	–
O=C(c1cc(Cc2c[nH]c(=O)c3cc(Cl)c(Cl)n23)ccc1F)N1CCCCC1	200	–	–	–	–	–	–	–
CN(C)CCN1CCN(C(=O)c2cc(Cc3c[nH]c(=O)c4cc(Cl)c(Cl)n34)ccc2F)CC1	18	> 10000	> 10000	–	–	–	–	–
O=C(c1cc(Cc2c[nH]c(=O)c3cc(Cl)c(Cl)n23)ccc1F)N1CCC2(CC1)NCNC2=O	9	> 2500	> 5000	–	–	–	–	–
O=C(c1ccccn1)N1CCN(C(=O)c2cc(Cc3c[nH]c(=O)c4cc(Cl)c(Cl)n34)ccc2F)CC1	2.4	150	> 5000	30	–	–	–	–
O=C(c1cc(Cc2c[nH]c(=O)c3c(Cl)c(Cl)cn23)ccc1F)N1CCCNCC1	1.6	220	> 20000	–	–	–	–	–
CN(C)C(C)(C)C(=O)N1CCN(C(=O)c2cc(Cc3c[nH]c(=O)c4cc(Cl)c(Cl)n34)ccc2F)CC1	5.1	200	> 5000	–	–	–	–	–
O=C(c1cc(Cc2c[nH]c(=O)c3cc(Cl)c(Cl)n23)ccc1F)N1CCN(c2cccnc2)CC1	12	> 5000	> 5000	20	–	–	–	–
CNC1CCN(C(=O)c2cc(Cc3c[nH]c(=O)c4cc(Cl)c(Cl)n34)ccc2F)CC1	2.3	400	> 5000	–	–	–	–	–
CCS(=O)(=O)N1CCN(C(=O)c2cc(Cc3c[nH]c(=O)c4cc(Cl)c(Cl)n34)ccc2F)CC1	9	3000	> 5000	–	–	–	–	–
O=C(c1cc(Cc2c[nH]c(=O)c3cc(Cl)c(Cl)n23)ccc1F)N1CCC(N2CCCC2)CC1	5.4	120	> 5000	–	–	135	94	30
CN1CCN(C(=O)c2cc(Cc3c[nH]c(=O)c4cc(Cl)c(Cl)n34)ccc2F)CC1	41	–	–	–	–	–	–	–
O=C(c1cc(Cc2c[nH]c(=O)c3cc(Cl)c(Cl)n23)ccc1F)N1CCC(N2CCC2)CC1	1	180	> 10000	–	–	–	–	–
CNC(C)(C)C(=O)N1CCN(C(=O)c2cc(Cc3c[nH]c(=O)c4cc(Cl)c(Cl)n34)ccc2F)CC1	2.1	53	> 5000	100 and 50	–	–	> 200	–
O=C(c1cc(Cc2c[nH]c(=O)c3cc(Cl)c(Cl)n23)ccc1F)N1CCN(c2cc3ccccc3cn2)CC1	1.8	320	1200	–	–	–	–	–
O=C(c1cc(Cc2c[nH]c(=O)c3cc(Cl)c(Cl)n23)ccc1F)N1CCN(c2ncccn2)CC1	3.1	130	2800	–	–	–	–	–
Cc1cc2c(=O)[nH]cc(Cc3ccc(F)c(C(=O)N4CCCNCC4)c3)n2c1	1.6	3400	> 20000	–	–	–	–	–
O=C(c1cc(Cc2c[nH]c(=O)c3cc(Cl)c(Cl)n23)ccc1F)N1CCC2(CCCCN2)CC1	6.2	220	> 5000	–	–	–	–	–
CN(C)C(=O)C(=O)N1CCN(C(=O)c2cc(Cc3c[nH]c(=O)c4cc(Cl)c(Cl)n34)ccc2F)CC1	2	1800	> 10000	–	–	–	–	–
O=C(c1cc(Cc2c[nH]c(=O)c3cc(Cl)c(Cl)n23)ccc1F)N1CCN(c2ccccn2)CC1	2.8	430	> 10000	–	–	–	–	–
O=C(c1cc(Cc2c[nH]c(=O)c3cc(Cl)c(Cl)n23)ccc1F)N1CCCNCC1	2.6	170	> 20000	–	0.91	–	–	–
CCC(=O)N1CCN(C(=O)c2cc(Cc3c[nH]c(=O)c4cc(Cl)c(Cl)n34)ccc2F)CC1	3.2	1200	> 5000	–	–	–	–	–
CC(=O)N1CCN(C(=O)c2cc(Cc3c[nH]c(=O)c4cc(Cl)c(Cl)n34)ccc2F)CC1	6.3	700	> 10000	–	–	–	–	–
CN(C)C1CCN(C(=O)c2cc(Cc3c[nH]c(=O)c4cc(Cl)c(Cl)n34)ccc2F)CC1	2.6	1600	> 10000	–	–	–	–	–
O=C(c1cc(Cc2c[nH]c(=O)c3cc(Cl)c(Cl)n23)ccc1F)N1CCN(CCO)CC1	13	> 5000	> 10000	–	–	–	–	–
